# Read-outs that look alike come from different tables or passages of the source.
# How the values were obtained:
# [1] = demonstrated in commonly assigned U.S. Application No. 61/003,863; cited from earlier work
# [2] = Experimental solubility limit of G-180 in liquid solvents (visual clarity); format: physicochemical; conditions: 25° C.
# Experimental: The solubility of G-180 in various solvents was determined as follows. Aliquot one to twenty grams of a target solvent into a vial or flask. Weigh out G-180 to provide a concentration of 25%. […] Visually inspect for clarity. If the solution is not completely clear, add solvent, calculate new concentration of G-180 and repeat the solubilization energy and check for clarity. Once a level of clarity is achieved, repeat the process but increase the G-180 concentration by 10% until clarity is diminished. Once these cross points of clarity are achieved, this is reported as the experimental solubility limit of G-180 in the respective solvent.
# [3] = concentration level where the cooling effect could be clearly recognized; Emberger and Hopp 1987; cited from earlier work
# Cooling effect (sensory) = format: in vivo; conditions: neoisomer prepared in Procter & Gamble laboratories
# Excerpt: Many of the compounds above including menthol have relatively low potency and the duration of the cooling effect is typically short-lived. Thus, it is necessary to include fairly high levels of such compounds when formulating products, which increases cost. In addition, many of these compounds are relatively high cost ingredients since they are expensive to manufacture on an industrial scale. Therefore, compounds with high potency and long lasting cooling effect are highly sought that will require only small amounts for incorporation in a variety of consumer products to provide high impact and long-lasting effect. Such potent and long lasting coolant compounds have recently been described for example in WO 2005/049553A1 to Givaudan including ρ-menthane carboxamides substituted at the amide N-position with an aryl moiety bearing certain substituents. Examples include N-(4-cyanomethylphenyl)-ρ-menthanecarboxamide; N-(4-sulfamoylphenyl)-ρ-menthanecarboxamide; N-(4-cyanophenyl)-ρ-menthanecarboxamide; N-(4-acetylphenyl)-ρ-menthanecarboxamide, N-(4-hydroxymethylphenyl)-ρ-menthanecarboxamide and N-(3-hydroxy-4-methoxyphenyl)-ρ-menthanecarboxamide. […]
compound,measurement,setting,value
"CC(C)[C@@H]1CC[C@@H](C)C[C@H]1C(=O)Nc1ccc(CC#N)cc1 [G180, N-[4-(cyanomethyl)phenyl]-(1R,2S,5R)-2-isopropyl-5-methylcyclohexanecarboxamide]",cooling effect,[1],intense and long-lasting cooling effect
same,G180 Experimental % Solubility,"[2]; solvent 2,3-dimethyl Pyrazine",20.4%
same,G180 Experimental % Solubility,"[2]; solvent 2,5-dimethyl Pyrazine",20.0%
same,G180 Experimental % Solubility,[2]; solvent Benzaldehyde,16.7%
same,G180 Experimental % Solubility,[2]; solvent Benzyl Salicylate,14.7%
same,G180 Experimental % Solubility,[2]; solvent Benzyl alcohol,21.2%
same,G180 Experimental % Solubility,[2]; solvent Cuminylaldehyde,20.0%
same,G180 Experimental % Solubility,[2]; solvent Isoamyl propionate,13.2%
same,G180 Experimental % Solubility,[2]; solvent Menthone,15.4%
same,G180 Experimental % Solubility,[2]; solvent Neryl acetate,7.4%
same,G180 Experimental % Solubility,[2]; solvent Para-Tolualdehyde,15.9%
same,G180 Experimental % Solubility,[2]; solvent Triacetin,4.4%
same,G180 Experimental % Solubility,[2]; solvent Water,<0.1%
same,G180 Experimental % Solubility,[2]; solvent α-Amyl Cinnamic Aldehyde,12.1%
CC(C)[C@@H]1CC[C@@H](C)C[C@H]1O [L-menthol],cooling threshold,[3],about 800 ppb
CC(C)[C@@H]1CC[C@@H](C)C[C@@H]1O [d-neomenthol],cooling threshold,[3],"about 25,000 ppb"
CC(C)[C@H]1CC[C@H](C)C[C@H]1O [l-neomenthol],cooling threshold,[3],"about 3,000 ppb"
"CC(C)[C@@H]1CC[C@@H](C)C[C@@H]1C(=O)Nc1ccc(CC#N)cc1 [neoisomer, N-[4-(cyanomethyl)phenyl]-(1S,2S,5R)-2-isopropyl-5-methylcyclohexanecarboxamide]",cooling effect,Cooling effect (sensory),potent and long-lasting cooling effect
